Assay results: patent US20250092056A1, “URACIL DERIVATIVES HAVING VIRUS REPLICATION INHIBITORY ACTIVITY AND PHARMACEUTICAL COMPOSITION COMPRISING THE SAME” (Shionogi & Co., Ltd., priority 2022, published 2025)
Like-named read-outs stand apart in the source and are kept apart here.

Experiments:
[1] = target: Recombinant SARS-CoV-2 3CL Protease (Severe acute respiratory syndrome coronavirus 2 (2019-nCoV) (SARS-CoV-2), UniProt P0DTD1); assay: biochemical; assay type: biochemical
SARS-CoV-2 = assay: Cytopathic effect (CPE) suppression effect confirmation test using HEK293T/ACE2-TMPRSS2 cells; assay type: cell-based; conditions: Severe acute respiratory syndrome coronavirus 2, HEK-293T
[2] = 50% SARS-CoV-2 3CL protease inhibitory concentration, read-out: IC50
[3] = 50% SARS-CoV-2 infected cell death inhibitory concentration, HEK293T/ACE2-TMPRSS2 cells, read-out: EC50
[4] = 72 h, read-out: EC50 (50% SARS-CoV-2 infected cell death inhibitory concentration), class, HEK293T/ACE2-TMPRSS2 cells, CPE suppression, CellTiter-Glo 2.0 after 3 days culture
[5] = 72 h, HEK293T/ACE2-TMPRSS2 cells, CPE suppression, CellTiter-Glo 2.0 after 3 days culture, read-out: EC50 (50% SARS-CoV-2 infected cell death inhibitory concentration), class
[6] = 72 h, read-out: EC50 (50% SARS-CoV-2 infected cell death inhibitory concentration), HEK293T/ACE2-TMPRSS2 cells, CPE suppression, CellTiter-Glo 2.0 after 3 days culture

SMILES	IC50 [1, 2] [nM]	EC50 (SARS-CoV-2; [3]) [nM]	also measured
N#CCn1c(N2CC(C(F)(F)F)C2)c(-c2ccc(F)c(C#N)c2)c(=O)n(-c2cncc(Cl)c2)c1=O [Compound I-374]	< 10	< 100	
N#CCn1c(N2CC3CCC(CC3)C2)c(Cc2cc(F)c(F)c(F)c2)c(=O)n(-c2cnc3ccccn23)c1=O [Compound I-038]			IC50 [1]: 10 to 100 nM; EC50 (SARS-CoV-2; [4]): < 100 nM
N#CCn1c(N2CC3(CCOC3)C2)c(Cc2cc(F)c(F)c(F)c2)c(=O)n(-c2cnc3cc(F)ccn23)c1=O [Compound I-145]	10 to 100		EC50 (SARS-CoV-2; [5]): 100 to 1000 nM
Cc1cncc(-n2c(=O)c(-c3ccc(F)c(Cl)c3)c(N3CCC4(CCOC4)C3)n(CC#N)c2=O)c1 (racemic) [Compound I-070]	< 10		EC50 (SARS-CoV-2; [4]): < 100 nM
N#CCn1c(N2CC(C(F)(F)F)C2)c(-c2ccc(F)c(Cl)c2)c(=O)n(-c2cncc(OCF)n2)c1=O [Compound I-421]	< 10	< 100	
Cc1cc(-c2c(N3CCC(F)(F)CC3)n(CC#N)c(=O)n(-c3cncc(Cl)c3)c2=O)cs1 [Compound I-328]	10 to 100	< 100	
Cc1cncc(-n2c(=O)c(-c3ccc(F)c(Cl)c3)c(N3C[C@@H]4C[C@H]3CO4)n(CC#N)c2=O)c1 [Compound I-225]	< 10	< 100	
Cc1cnnc(-n2c(=O)c(-c3ccc(F)c(Cl)c3)c(N3CC4(CCOC4)C3)n(CC#N)c2=O)c1 [Compound I-160]	< 10		EC50 (SARS-CoV-2; [4]): < 100 nM
Cc1cncc(-n2c(=O)c(-c3cccc4ccccc34)c(N3Cc4cn[nH]c4C3)n(CC#N)c2=O)c1 [Compound I-016]	< 10		EC50 (SARS-CoV-2; [4]): < 100 nM
CC(C)(C)OC(=O)C(C#N)n1c(N2CCC(C(F)(F)F)CC2)c(-c2ccc(F)c(Cl)c2)c(=O)n(-c2cncc(Cl)c2)c1=O (racemic) [Compound I-050]	10 to 100		EC50 (SARS-CoV-2; [5]): < 100 nM
Cc1cc(-n2c(=O)c(-c3ccc(F)c(Cl)c3)c(C#CC3CC3)n(CC#N)c2=O)cc(=O)[nH]1 [Compound I-184]	> 100		EC50 (SARS-CoV-2; [4]): 100 to 1000 nM
N#CCn1c(N2CCC(F)(F)CC2)c(-c2cc(F)c(F)c(Cl)c2)c(=O)n(-c2cncc(Cl)c2)c1=O [Compound I-327]	< 10	< 100	
N#CCn1c(N2CCC(F)(F)CC2)c(-c2ccc(F)c(C(F)F)c2)c(=O)n(-c2cncc(C#N)c2)c1=O [Compound I-417]	< 10	< 100	
N#CCn1c(N2CC(O)(C(F)(F)F)C2)c(-c2ccc(F)c(F)c2)c(=O)n(-c2cncc(Cl)c2)c1=O [Compound I-317]	< 10	< 100	
Cc1cncc(-n2c(=O)c(Cc3cc(F)c(F)c(F)c3)c(N3C[C@H]4CN(C)C[C@H]4C3)n(CC#N)c2=O)c1 [Compound I-117]	< 10		EC50 (SARS-CoV-2; [4]): < 100 nM
N#CCn1c(N2CC3(C=C(F)C3)C2)c(-c2ccc(F)c(Cl)c2)c(=O)n(-c2cncc(Cl)c2)c1=O [Compound I-362]	< 10	< 100	
N#CCn1c(N2CC(O)(c3ncccn3)C2)c(-c2ccc(F)c(F)c2)c(=O)n(-c2cncc(Cl)c2)c1=O [Compound I-321]	< 10	< 100	
N#CCn1c(N2CC(O)(c3ncccn3)C2)c(-c2ccc(F)c(Cl)c2)c(=O)n(-c2cncc(OCF)n2)c1=O [Compound I-377]	< 10	< 100	
N#CCn1c(N2C[C@H]3C[C@@H]2CN3)c(-c2ccc(F)c(Cl)c2)c(=O)n(-c2cncc(Cl)c2)c1=O [Compound I-146]	< 10		EC50 (SARS-CoV-2; [4]): 100 to 1000 nM
COC1CCN(c2c(Cc3cc(F)c(F)c(F)c3)c(=O)n(-c3cncc(C)c3)c(=O)n2CC#N)C1 (racemic) [Compound I-102]	< 10		EC50 (SARS-CoV-2; [4]): < 100 nM
CC1(O)CN(c2c(-c3ccc(F)c(Cl)c3)c(=O)n(-c3cncc(C(F)F)n3)c(=O)n2CC#N)C1 [Compound I-382]	< 10	< 100	
N#CCn1c(OC2CC(F)(F)C2)c(-c2ccc(F)c(Cl)c2)c(=O)n(-c2cncc(Cl)c2)c1=O [Compound I-245]	10 to 100	< 100	
Cc1cncc(-n2c(=O)c(Cc3cc(F)c(F)c(F)c3)c(-c3ccc(C(F)(F)F)c(Cl)c3)n(CC#N)c2=O)c1 [Compound I-031]	< 10		EC50 (SARS-CoV-2; [4]): < 100 nM
Cc1cncc(-n2c(=O)c(-c3ccc(F)c(Cl)c3)c(Oc3ccc(F)cc3Cl)n(CC#N)c2=O)c1 [Compound I-030]	< 10		EC50 (SARS-CoV-2; [4]): < 100 nM
COc1ccc(Oc2c(Cc3cc(F)c(F)c(F)c3)c(=O)n(-c3cncc(C)c3)c(=O)n2CC#N)cc1 [Compound I-202]	37		EC50 (SARS-CoV-2; [6]): 613 nM
Cc1cncc(-n2c(=O)c(Cc3cc(F)c(F)c(F)c3)c(N3CCC(CO)CC3)n(CC#N)c2=O)c1 [Compound I-104]	< 10		EC50 (SARS-CoV-2; [4]): < 100 nM

SMILES	IC50 [1, 2] [nM]	EC50 (SARS-CoV-2; [3]) [nM]	also measured
Cc1cncc(-n2c(=O)c(Cc3cc(F)c(F)c(F)c3)c(N3Cc4ccccc4C3)n(CC#N)c2=O)c1 [Compound I-205]	0.76		EC50 (SARS-CoV-2; [6]): 5 nM
Cc1cncc(-n2c(=O)c(-c3cc(F)c(F)c(F)c3)c(/C=C/C(C)(C)O)n(CC#N)c2=O)c1 [Compound I-291]	10 to 100	< 100	
N#CCn1c(N2CC3(C2)CC(F)(F)C3)c(-c2ccc(F)c(Cl)c2)c(=O)n(-c2cncc(C(F)(F)F)n2)c1=O [Compound I-207]	< 10	< 100	
CCCCc1c(-c2ccc(F)cc2)n(CC#N)c(=O)n(-c2cncc(Cl)c2)c1=O [Compound I-286]	10 to 100	100 to 1000	
Cc1cc(-n2c(=O)c(-c3cc(F)c(F)c(Cl)c3)c(N3CCC(C(F)(F)F)CC3)n(CC#N)c2=O)cc(=O)[nH]1 [Compound I-034]	10 to 100		EC50 (SARS-CoV-2; [5]): < 100 nM
CC1(O)CN(c2c(-c3ccc(F)c(Cl)c3)c(=O)n(-c3cncc(OCF)n3)c(=O)n2CC#N)C1 [Compound I-355]	< 10	< 100	
N#CCn1c(N2CC(C(F)(F)F)C2)c(-c2ccc(F)c(Cl)c2)c(=O)n(-c2cnc3cc(Cl)ccn23)c1=O [Compound I-139]	10 to 100		EC50 (SARS-CoV-2; [5]): < 100 nM
N#CCn1c(N2CC(C(F)F)C2)c(-c2ccc(F)c(Cl)c2)c(=O)n(-c2cncc(C#N)c2)c1=O [Compound I-312]	< 10	< 100	
N#CCn1c(N2CC3(C2)CC(F)(F)C3)c(-c2cncc(Cl)c2)c(=O)n(-c2cncc(Cl)c2)c1=O [Compound I-258]	< 10	< 100	
Cc1c(-c2ccc(F)c(Cl)c2)c(=O)n(-c2cncc(Cl)c2)c(=O)n1CC#N [Compound I-299]	< 10	< 100	
N#CCn1c(N2CC[C@](O)(c3ccccc3)C2)c(-c2ccc(F)c(Cl)c2)c(=O)n(-c2cncc(Cl)c2)c1=O (single isomer, unassigned) [Compound I-241]	< 10	< 100	
C[C@@H](C#N)n1c(N2CC[C@@](O)(C(F)F)C2)c(-c2ccc(F)c(Cl)c2)c(=O)n(-c2cncc(C#N)c2)c1=O (single isomer, unassigned) [Compound I-433]	< 10	< 100	
CN(C)c1cnnc(-n2c(=O)c(-c3ccc(F)c(Cl)c3)c(N3CC4(C3)CC(F)(F)C4)n(CC#N)c2=O)c1 [Compound I-219]	10 to 100	100 to 1000	
N#CCn1c(N2CC[C@@](O)(C(F)F)C2)c(-c2ccc(F)c(Cl)c2)c(=O)n(-c2cncc(C#N)c2)c1=O [Compound I-399]	< 10	< 100	
CCOC1CN(c2c(-c3ccc(F)c(Cl)c3)c(=O)n(-c3cncc(C(F)F)n3)c(=O)n2CC#N)C1 [Compound I-418]	< 10	< 100	
COc1ccc(-c2c(-c3ccc(F)c(Cl)c3)c(=O)n(-c3cncc(Cl)c3)c(=O)n2CC#N)cn1 [Compound I-379]	< 10	< 100	
Cc1cncc(-n2c(=O)c(Cc3cc(F)c(F)c(F)c3)c(N3CC4(CCOC4)C3)n(CC#N)c2=O)c1 [Compound I-101]	< 10		EC50 (SARS-CoV-2; [4]): < 100 nM
Cc1cc(-n2c(=O)c(-c3cc(F)c(F)c(Cl)c3)c(N3CC4(C3)CC(F)(F)C4)n(CC#N)c2=O)cc(=O)[nH]1 [Compound I-033]	< 10		EC50 (SARS-CoV-2; [4]): 100 to 1000 nM
Cc1cc(-n2c(=O)c(-c3ccc(F)c(Cl)c3)c(N3CC4(C3)CC(F)(F)C4)n(CC#N)c2=O)[nH]c(=O)c1 [Compound I-221]	> 100	1000 to 5000	
N#CCn1c(CC2(O)CCC2)c(-c2ccc(F)c(Cl)c2)c(=O)n(-c2cncc(Cl)c2)c1=O [Compound I-407]	10 to 100	< 100	
N#CCn1c(N2CC(O)(C(F)(F)F)C2)c(-c2ccc(F)c(Cl)c2)c(=O)n(-c2cncc(Cl)c2)c1=O [Compound I-142]	0.46		EC50 (SARS-CoV-2; [6]): 3.35 nM
Cc1cncc(-n2c(=O)c(-c3ccc(F)c(Cl)c3)c(/C=C/c3ccc(C(F)(F)F)cc3)n(CC#N)c2=O)c1 [Compound I-212]	10 to 100	100 to 1000	
Cc1cncc(-n2c(=O)c(Cc3cc(F)c(F)c(F)c3)c(N3CCN(C)C(=O)C3)n(CC#N)c2=O)c1 [Compound I-098]	< 10		EC50 (SARS-CoV-2; [4]): < 100 nM
N#CCn1c(N2CCC(C(F)F)CC2)c(-c2ccc(F)c(C(F)F)c2)c(=O)n(-c2cncc(C#N)c2)c1=O [Compound I-413]	< 10	< 100	
N#CCn1c(-c2ccc(C#N)nc2)c(-c2ccc(F)c(Cl)c2)c(=O)n(-c2cncc(Cl)c2)c1=O [Compound I-384]	< 10	< 100	
